In article PMC5234788 (PLoS ONE, 2017):

How the values were obtained:
Serotonin, 5HT6 (h) = test system: T1, Serotonin, 5HT6 (h); assay: Radio-ligand binding assay, Serotonin 5HT6; parameters: species or system human; settings: 10 μM l-THBr; radioligand [3H]-LSD
T1 construct: Caliper Lifescience
Procedure: (§1) To determine the possible targets of l-THBr action, the binding affinities of l-THBr to neurotransmitter receptors known to be involved in sedation, hypnosis and anxiety were investigated. Radio-ligand binding assays were performed by Caliper Lifescience (Hopkinton, MA, USA). The screening was carried out at a concentration of 10 μM l–THBr to test its ability to inhibit the binding of radioligands to their corresponding receptors. The results were expressed as percentage of inhibition of labeled ligand binding to individual receptors. Significant binding activity was defined as ≥50%.

[1] = test system: T2, GABA A, BDZ, Alpha 1 site; assay: Radio-ligand binding assay, GABA A BDZ alpha 1 site; settings: 10 μM l-THBr; radioligand [3H]Flunitrazepam
T2 construct: Caliper Lifescience
Procedure: as §1

Serotonin, 5HT2C = test system: T3, Serotonin, 5HT2C; assay: Radio-ligand binding assay, Serotonin 5HT2C; settings: 10 μM l-THBr; radioligand [3H]Mesulergine
T3 construct: Caliper Lifescience
Procedure: as §1

SMILES: COc1ccc2c(c1O)CN1CCc3cc4c(cc3[C@@H]1C2)OCO4 [l-THBr, levo-tetrahydroberberrubine]
- Average inhibition percentage (Serotonin, 5HT6 (h)): 22.79%
- Average inhibition percentage [1]: -3.30%
- Average inhibition percentage (Serotonin, 5HT2C): 30.65%
